The source of these data is ChEMBL document CHEMBL1130070, “Zinc ejection as a new rationale for the use of cystamine and related disulfide-containing antiviral agents in the treatment of AIDS” (J Med Chem, 1997).

Structures are written as SMILES. Some results are limits rather than exact numbers.

The test system of experiment [1] is CEM-SS. The experiment can be described thus: Antiviral activity against HIV-1 in CEM-SS cells using […] assay; I = No antiviral activity. Format: functional, cell-based, Homo sapiens.
Experiment [2] concerns the target Human immunodeficiency virus type 1 reverse transcriptase (Human immunodeficiency virus 1, UniProt Q72547). Briefly: Compound was tested for the effect on HIV-1 Reverse Transcriptase; NI = No inhibition.
In experiment [3] the test system is CEM-SS. The experiment can be described thus: Antiviral activity against HIV-1ADA in […]. Format: functional, cell-based. As to conditions: Homo sapiens; call rule not given here.
The target in experiment [4] is Human immunodeficiency virus type 1 protease (Human immunodeficiency virus 1, UniProt Q72874). Briefly: Compound was tested for effects on HIV-1 protease; NI = No inhibition.
For experiment [5], the system named is CEM-SS. Briefly: Antiviral activity against HIV-1ADA in […]; I = No antiviral activity. The class given is functional, cell-based, Homo sapiens.
Experiment [6] relates to Human immunodeficiency virus 1. Briefly: Compound was tested for binding of HIV-1 to CEM-ss cells; NI = No inhibition. Format: functional, organism-based.
The test system of experiment [7] is CEM-SS. The experiment can be described thus: Antiviral activity against HIV-1 in CEM-SS cells using […] assay. Format: functional, cell-based. As to conditions: Homo sapiens.

Take `C/C(=C(\CCO)SS/C(CCO)=C(/C)N(C=O)Cc1cnc(C)nc1N)N(C=O)Cc1cnc(C)nc1N`: the EC50 result in the experiment with CEM-SS [1] and in the experiment on CEM-SS [5] was “Not Active” each time. The I50 entry in experiment [2], in experiment [4] and in experiment [6] was “Not Active” in each case. Also, the IC50 was > 100 µM with CEM-SS [3] and 535 µM in the experiment on CEM-SS [7].

Consider `NCCSSCCN` [CYSTAMINE], for which the I50 entry in experiment [2], in experiment [4] and in experiment [6] was “Not Active” in each case. Further, the results for the EC50 in the experiment on CEM-SS [3] and in the experiment with CEM-SS [7] were 4.3 µM and 56.2 µM, respectively. In addition, the values for the IC50 in the experiment on CEM-SS [3] and with CEM-SS [7] were > 100 µM and 172 µM, respectively.

Take `NCCS` [CYSTEAMINE]: the I50 result in experiment [2], in experiment [4] and in experiment [6] was “Not Active” throughout. For the same molecule, the figures for the half-maximal effective concentration (EC50) in the experiment with CEM-SS [3] and in the experiment on CEM-SS [7] were 53.7 µM and 41.6 µM, respectively. In addition, the IC50 in the experiment with CEM-SS [3] was > 100 µM; with CEM-SS [7] it was 71 µM.

For `CCN(CC)C(=S)SSC(=S)N(CC)CC` [DISULFIRAM], the EC50 result in the experiment on CEM-SS [1] and with CEM-SS [5] was “Not Active” throughout. In addition, the I50 result in experiment [2], in experiment [4] and in experiment [6] was “Not Active” throughout. The half-inhibitory concentration (IC50) in the experiment with CEM-SS [3] is > 100 µM; in the experiment on CEM-SS [7], 3.9 µM.

Consider `CCN(CC)C(=S)S` [DITIOCARB], for which the 50% effective concentration (EC50) entry in the experiment on CEM-SS [1] and in the experiment on CEM-SS [5] was “Not Active” each time. Moreover, the I50 result in experiment [2], in experiment [4] and in experiment [6] was “Not Active” in each case. The IC50 with CEM-SS [3] and in the experiment on CEM-SS [7] was > 100 µM throughout.
